This is an account of results in EP0908457B1, “3-(1,2-benzisothiazol- and isoxazol-5-Y1)-2,4(1H,3H)-pyrimidinedione or thione and 3-(1,2-benzisothiazol- and isoxazol-5-y1)-4(3H)-pyrimidinone or thione herbicidal agents” (BASF AKTIENGESELLSCHAFT, priority 1997, dated 1999).

Data set [1] concerns Echinochloa oryzoides (Ard.) Fritsch. In words: Preemergence weed control under flooded paddy conditions, ECHORC (Watergrass (Calif.)). As to herbicidal effect rating, ECHORC: meaning of each grade not given here. As to conditions: flooded paddy; for herbicidal effect rating, ECHORC: rated three to four weeks after treatment; for ECHORC: herbicidal effect rating 0-9, three to four weeks after treatment. The format is in vivo.
For the next data set, the system named is Cyperus iria. Put plainly: Preemergence weed control under flooded paddy conditions, CYPIR (Rice Flatsedge). As to herbicidal effect rating, CYPIR: meaning of each grade not given here. As to conditions: flooded paddy; for herbicidal effect rating, CYPIR: rated three to four weeks after treatment; for CYPIR: herbicidal effect rating 0-9, three to four weeks after treatment. The format is in vivo.
The subject of data set [2] is Cyperus serotinus, Rottb. In words: Preemergence weed control under flooded paddy conditions, CYPSE (Flatsedge). As to herbicidal effect rating, CYPSE: meaning of each grade not given here. The format is in vivo. As to conditions: for herbicidal effect rating, CYPSE: rated three to four weeks after treatment; for CYPSE: herbicidal effect rating 0-9, three to four weeks after treatment.
In data set [3] the test system is Monochoria vaginalis, Presl. Put plainly: Preemergence weed control under flooded paddy conditions, MOOVA (Monochoria). As to herbicidal effect rating, MOOVA: meaning of each grade not given here. The class given is in vivo. The note with it: flooded paddy; for herbicidal effect rating, MOOVA: rated three to four weeks after treatment; for MOOVA: herbicidal effect rating 0-9, three to four weeks after treatment.
The next data set concerns Sagittaria pygmaea, L. Put plainly: Preemergence weed control under flooded paddy conditions, SAGPY (Arrowhead (Pygmaea)). As to herbicidal effect rating, SAGPY: meaning of each grade not given here. As to conditions: flooded paddy; for herbicidal effect rating, SAGPY: rated three to four weeks after treatment; for SAGPY: herbicidal effect rating 0-9, three to four weeks after treatment. The format is in vivo.
Data set [4] relates to Oryza sativa, (L.) Tebonnet. In words: Rice tolerance to post-transplant applications under flooded paddy conditions (Example 187), ORYSAT (Rice, Tebonnet). The note with it: for herbicidal effect rating, ORYSAT (rice tolerance): rated three to four weeks after treatment; for ORYSAT: herbicidal effect rating 0-9, three to four weeks after treatment.
The mark [5] stands for this setting: 0.0313 kg/ha, preemergence weeds.
Setting [6] is: 0.0625 kg/ha, preemergence weeds.
The mark [7] stands for this setting: 0.1250 kg/ha, preemergence weeds.
Setting [8] is: 0.2500 kg/ha, preemergence weeds.
[9] abbreviates: 0.0320 kg/ha, preemergence weeds.
Setting [10] is: 0.0620 kg/ha, preemergence weeds.

In the case of `COCC(C)OC(=O)COc1ccc(C)cc1-c1nsc2ccc(-n3c(=O)cc(C(F)(F)F)n(C)c3=O)cc12` (racemic) [Example 192, 1-Methyl-2-methoxyethyl {{2-{5-[3,6-dihydro-3-methyl-2,6-dioxo-4-(trifluoromethyl)-1(2H)-pyrimidinyl]-1,2-benzisothiazol-3-yl}-p-tolyl}oxy}acetate, DL-], the “herbicidal effect rating, ECHORC” value in data set [1] (setting [5]) is 1.0; in data set [1] (setting [6]), 4.0; in data set [1] (setting [7]), 9.0; in data set [1] (setting [8]), 9.0. In addition, the “herbicidal effect rating, CYPIR” value with Cyperus iria (setting [5]) is given as 0.0; with Cyperus iria (setting [6]), 0.0; with Cyperus iria (setting [7]), 2.0; in the data set on Cyperus iria (setting [8]) it was 7.0. The “herbicidal effect rating, CYPSE” value in data set [2] (setting [5]), in data set [2] (setting [6]) and in data set [2] (setting [7]) was 0.0 each time. In addition, the “herbicidal effect rating, MOOVA” value in data set [3] (setting [5]), in data set [3] (setting [6]), in data set [3] (setting [7]) and in data set [3] (setting [8]) was 9.0 each time. Also, the “herbicidal effect rating, SAGPY” value in the data set with Sagittaria pygmaea, L. (setting [5]) was found to be 0.0; in the data set with Sagittaria pygmaea, L. (setting [6]), 0.0; in the data set on Sagittaria pygmaea, L. (setting [7]), 2.0; with Sagittaria pygmaea, L. (setting [8]) it was 9.0. The “herbicidal effect rating, ORYSAT (rice tolerance)” value is 1.0 in data set [4] (0.0313 kg/ha), 2.0 in data set [4] (0.0625 kg/ha), 3.0 in data set [4] (0.1250 kg/ha) and 4.0 in data set [4] (0.2500 kg/ha).

As for `COC(=O)COc1ccc(C)cc1-c1nsc2ccc(-n3c(=O)cc(C)n(C)c3=O)cc12` [Example 38, Methyl {{2-[5-(3,6-dihydro-3,4-dimethyl-2,6-dioxo-1(2H)-pyrimidinyl)-1,2-benzisothiazol-3-yl]-p-tolyl}oxy}acetate], the “herbicidal effect rating, ECHORC” value in data set [1] (0.0313 kg/ha, preemergence) was 0.0; in data set [1] (0.0625 kg/ha, preemergence), 0.0; in data set [1] (0.1250 kg/ha, preemergence), 1.0; in data set [1] (0.2500 kg/ha, preemergence), 2.0. The “herbicidal effect rating, CYPIR” value in the data set with Cyperus iria (0.0313 kg/ha, preemergence) amounted to 0.0; in the data set on Cyperus iria (0.0625 kg/ha, preemergence), 0.0; in the data set on Cyperus iria (0.1250 kg/ha, preemergence), 0.0; in the data set with Cyperus iria (0.2500 kg/ha, preemergence), 0.0. Moreover, the “herbicidal effect rating, CYPSE” value in data set [2] (0.0313 kg/ha, preemergence) came to 0.0; in data set [2] (0.0625 kg/ha, preemergence), 0.0; in data set [2] (0.1250 kg/ha, preemergence), 0.0; in data set [2] (0.2500 kg/ha, preemergence), 0.0. The “herbicidal effect rating, MOOVA” value is 0.0 in data set [3] (0.0313 kg/ha, preemergence); 0.0 in data set [3] (0.0625 kg/ha, preemergence); 0.0 in data set [3] (0.1250 kg/ha, preemergence); 0.0 in data set [3] (0.2500 kg/ha, preemergence). Besides, the “herbicidal effect rating, SAGPY” value in the data set on Sagittaria pygmaea, L. (0.0313 kg/ha, preemergence) worked out at 0.0; in the data set on Sagittaria pygmaea, L. (0.0625 kg/ha, preemergence), 0.0; in the data set with Sagittaria pygmaea, L. (0.1250 kg/ha, preemergence), 0.0; in the data set with Sagittaria pygmaea, L. (0.2500 kg/ha, preemergence), 0.0. The “herbicidal effect rating, ORYSAT (rice tolerance)” value in data set [4] (0.0313 kg/ha), in data set [4] (0.0625 kg/ha), in data set [4] (0.1250 kg/ha) and in data set [4] (0.2500 kg/ha) was 0.0 throughout.

Take `CCC(C#N)c1nsc2ccc(-n3c(=O)cc(C(F)(F)F)n(C)c3=O)cc12` (stereo not drawn) [Example 444, 1,2-Benzisothiazole-3-acetonitrile, 5-[3,6-dihydro-3-methyl-2,6-dioxo-4-(trifluoromethyl)-1(2H)-pyrimidinyl]-alpha-ethyl-]: the ECHORC worked out at 3.5 in data set [1] (setting [9]), 6.0 in data set [1] (setting [10]), 8.5 in data set [1] (setting [7]) and 9.0 in data set [1] (setting [8]). The CYPIR was 7.5 in the data set on Cyperus iria (setting [9]), 8.0 in the data set on Cyperus iria (setting [10]), 9.0 in the data set on Cyperus iria (setting [7]) and 9.0 with Cyperus iria (setting [8]). Moreover, the CYPSE was 3.5 in data set [2] (setting [9]), 9.0 in data set [2] (setting [10]), 9.0 in data set [2] (setting [7]) and 9.0 in data set [2] (setting [8]). The MOOVA is given as 8.0 in data set [3] (setting [9]), 9.0 in data set [3] (setting [10]), 9.0 in data set [3] (setting [7]) and 9.0 in data set [3] (setting [8]). The SAGPY stood at 4.5 with Sagittaria pygmaea, L. (setting [9]); 6.0 with Sagittaria pygmaea, L. (setting [10]); 7.0 in the data set with Sagittaria pygmaea, L. (setting [7]); 9.0 in the data set on Sagittaria pygmaea, L. (setting [8]). Further, the ORYSAT amounted to 4.5 in data set [4] (0.0320 kg/ha), 6.5 in data set [4] (0.0620 kg/ha), 9.0 in data set [4] (0.1250 kg/ha) and 8.5 in data set [4] (0.2500 kg/ha).

For `Cn1c(C(F)(F)F)cc(=O)n(-c2ccc3snc(C4(C#N)CC4)c3c2)c1=O` [Example 446, Cyclopropanecarbonitrile, 1-{5-[3,6-dihydro-3-methyl-2,6-dioxo-4-(trifluoromethyl)-1(2H)-pyrimidinyl]-1,2-benzisothiazol-3-yl}-], the ECHORC in data set [1] (setting [9]) turned out to be 6.0; in data set [1] (setting [10]), 6.0; in data set [1] (setting [7]) it was 7.0; in data set [1] (setting [8]) it was 9.0. In addition, the CYPIR in the data set on Cyperus iria (setting [9]), in the data set on Cyperus iria (setting [10]), in the data set with Cyperus iria (setting [7]) and with Cyperus iria (setting [8]) was 9.0 each time. For the same compound, the CYPSE in data set [2] (setting [9]), in data set [2] (setting [10]), in data set [2] (setting [7]) and in data set [2] (setting [8]) was 9.0 each time. For the same compound, the MOOVA in data set [3] (setting [9]), in data set [3] (setting [10]), in data set [3] (setting [7]) and in data set [3] (setting [8]) was 9.0 in each case. In addition, the SAGPY in the data set on Sagittaria pygmaea, L. (setting [9]) turned out to be 9.0; with Sagittaria pygmaea, L. (setting [10]), 9.0; in the data set with Sagittaria pygmaea, L. (setting [7]), 9.0; in the data set with Sagittaria pygmaea, L. (setting [8]), 9.0. Further, the ORYSAT in data set [4] (0.0320 kg/ha) stood at 6.0; in data set [4] (0.0620 kg/ha) it was 7.0; in data set [4] (0.1250 kg/ha), 9.0; in data set [4] (0.2500 kg/ha) it was 9.0.
